Laboratory results taken from a melting point compilation (Tetko et al.).

Structure (SMILES)	melting point [°C]
O=C(Cc1nc2ccccc2n1C(F)F)c1cccs1	123 to 125
CC1(c2ccc(S(C)(=O)=O)cc2)CO1 (configuration not stated)	96 to 98
CNC(=O)COc1cccc(Br)c1	94 to 96
Cc1cc(C)cc(Oc2ccc(CN)cc2C)c1	56 to 58
O=c1c2ccc(C(F)(F)F)cc2nc2n1CCC2	156 to 158
O=C(Nc1cc(F)ccc1C(=O)O)c1cccc(Br)c1	217 to 219
Cc1cc(C(=O)O)cc(S(C)(=O)=O)c1F	229 to 231
O=C(O)CCn1cnc2sccc2c1=O	165 to 167
O=C(O)c1ccc(F)c(S(=O)(=O)N2CCC2)c1	180 to 182
O=C(O)c1ccc(S(=O)(=O)Nc2ccccc2Oc2ccccc2)cc1	204 to 206
N#Cc1ccc(N2CCC(N)CC2)cc1	84 to 86
O=C(O)Cn1ccccc1=O	220 to 222
Nc1nsc(N2CCCC2)n1	244 to 246
CNCc1ccc(C(=O)NC)o1	65 to 67
N#Cc1cccc(NC(=O)CC2CC2)c1	89 to 91
O=C(O)Cc1coc2cc(O)ccc12	127 to 129
O=C(O)c1cc(-c2cccs2)nc2ccccc12	199 to 201
NNc1nccnc1Cl	153 to 155
CC(=O)c1cncs1	64 to 66
Cc1[nH]c(C(=O)O)c(C)c1C(=O)OC(C)C	183 to 185
COC(=O)c1ccncc1O	149 to 151
CCCOc1ccc(C(F)(F)F)cc1NC(=O)CCl	73 to 75
CC(C)c1cccc(S(N)(=O)=O)c1	74 to 76
O=C(O)CCOc1cccc(Br)c1	60 to 69

Structure (SMILES)	melting point [°C]
Cc1nc2ccnn2c(C)c1C(=O)O	194 to 196
COc1ccc(OCCCC(=O)O)cc1	101 to 105
CCn1cc2ccc(N)cc2n1	97 to 99
O=C(Nc1ccc(S(=O)(=O)Cl)cc1)C(F)(F)F	152 to 154
N#Cc1cnc2ccc(OC(F)F)cc2c1Cl	103 to 105
O=C(O)CCc1nnc(C2CCCC2)o1	62 to 64
CC(=O)c1ccc(OCC(=O)N2CCOCC2)cc1	55 to 59
O=C(CCCl)Nc1cc([N+](=O)[O-])ccc1F	84 to 86
CC(C)NC(=O)C(=O)NN	158 to 160
O=C(O)c1cccc(S)c1	144 to 147
Cc1ccc(Oc2ccc(N)cn2)cc1	90 to 92
N#CC1(NC(=O)c2ccccc2)CCCCC1	135 to 137
Nc1ccc(C(=O)NCC(F)(F)F)cc1	157 to 159
COc1ccc(NS(=O)(=O)c2ccc3oc(S)nc3c2)cc1	175 to 177
O=C(O)c1cccc(-n2cccn2)n1	184 to 186
Cn1cc2c(=O)[nH][nH]c(=O)c2c1-c1ccc(N)cc1	349 to 351
NS(=O)(=O)c1cc(C(=O)O)co1	176 to 178
N#CCN1CCCC2CCCCC21 (configuration not stated)	42 to 44
COc1cc(Cl)c(S(=O)(=O)Cl)cc1Cl	76 to 78
NC(=S)Cc1nnc2n1CCCCC2	227 to 229
Cc1cc(C=O)cc(C)c1OCc1ccccc1Cl	58 to 60
O=S(=O)(Nc1ccc2cn[nH]c2c1)c1ccc2c(c1)CCC2	168 to 170
Cc1ncc(NC(=O)OC(C)(C)C)s1	147 to 149
CC1(C)NC(=O)N(c2cccc(C#N)c2)C1=O	159 to 161

Structure (SMILES)	melting point [°C]
Cc1cc(C(=O)C=O)ccc1F	76 to 78
Nc1ccc2[nH]c3c(c2c1)CCCC3	174 to 176
COc1ccc(Br)cc1NC(=O)C1CCC1	84 to 86
Nc1ccc(N2CCSCC2)c(C(=O)O)c1	263 to 265
COC(=O)c1sc(N)nc1C1CC1	184 to 186
CC(c1nnc(S)n1-c1ccc(F)cc1)N1CCCCC1 (configuration not stated)	115 to 117
O=C1Nc2c(Cl)cc(Br)cc2C1=O	225 to 227
Cc1cc(Br)cc(C)c1NCc1ncc[nH]1	142 to 144
NC(CC1C(=O)Nc2ccccc21)=NO (configuration not stated)	183 to 185
CN1C(=O)c2cccc(N)c2C1=O	199 to 201
CCn1c(C)cc(C(=O)CCl)c1C	89 to 91
CC(C)c1ccccc1-n1ccnc1S	173 to 177
CCOC(=O)c1cnn(-c2ccc(OCC)cc2)c1N	119 to 121
O=C(CC1CCCC1)N1CCNCC1	37 to 39
CCn1c(S)nnc1-c1ccc(OC)cc1	178 to 180
Cc1cc(C(=O)O)ccc1I	218 to 220
O=C(O)CCc1nc2cc(Cl)ccc2s1	145 to 147
CCc1ccc(C(=O)O)cc1C#N	141 to 143
Cc1cc(C(=O)NCC(=O)O)ccc1[N+](=O)[O-]	216 to 218
O=C(O)C1CS(=O)(=O)c2ccccc2O1 (configuration not stated)	239 to 241
COc1ccc(C2=CCNCC2)cc1	73 to 75
N#CCCn1cc(C=O)c(-c2ccccc2)n1	74 to 76
CC(=CC(=O)O)c1ccc(F)cc1F	157 to 159
CC(Br)C(=O)C12CC3CC(CC(C3)C1)C2 (configuration not stated)	86 to 88

Structure (SMILES)	melting point [°C]
O=C(O)c1cccc(N2NC(=O)C3CC=CCC3C2=O)c1 (configuration not stated)	185 to 187
COC(=O)c1cccc(C(=O)O)n1	149 to 151
O=C(O)c1cc(-c2ccc(Cl)s2)nc2ccccc12	242 to 244
CCOc1ccc(Oc2ccc(C(F)(F)F)cc2N)cc1	45 to 47
O=C(O)c1cc(Cl)c2c(c1)OCCCO2	195 to 197
Oc1ccccc1CNc1ccc(F)cc1	103 to 105
Cc1cc(S(=O)(=O)Cl)c(C)cc1Br	54 to 56
COc1ccc(-c2noc(CCC(=O)O)n2)cc1OC	120 to 122
O=c1[nH]c(-c2ccc(Cl)cc2)co1	241 to 243
O=Cc1ccc(Br)cc1[N+](=O)[O-]	95 to 100
O=c1[nH]c(=O)c2cc(S(=O)(=O)Cl)cnc2[nH]1	311 to 313
O=[N+]([O-])c1cc(Cl)ccc1S(=O)(=O)Cl	74 to 76
CC1CCCCN1C(=O)c1ccc(N)cc1Cl (configuration not stated)	186 to 188
Clc1ccncc1Cl	22 to 23
CC(N)c1ccc(N2CCCC2=O)cc1 (configuration not stated)	62 to 64
Cc1ccc(OC(C)C(=O)O)c(Br)c1 (configuration not stated)	120 to 122
Nc1ccc(-c2nc3cccc(Cl)c3s2)cc1	149 to 151
CC(Oc1ccc2c(c1)CCC2)C(=O)O (configuration not stated)	103 to 105
CC(C)(C#N)NS(C)(=O)=O	61 to 63
CC(=O)NCCc1ccc(C(C)=O)cc1	94 to 96
COCc1nc(OC)c2c(C)c(C(=O)O)sc2n1	188 to 190
CCc1cccc2c(CC(=O)O)c[nH]c12	175 to 177
CCCS(=O)(=O)c1ccc(C(=O)O)cc1	193 to 195
Cn1cnn(-c2ccc(N)cc2)c1=O	159 to 161

Structure (SMILES)	melting point [°C]
Cc1ccc(N)c(N)c1C	49 to 51
COc1ccc(N)cc1OCC1CCCO1 (configuration not stated)	85 to 87
CNC1(c2ccccc2Cl)CCCC(=Cc2cccs2)C1=O (configuration not stated)	129 to 131
O=C(O)c1cc([N+](=O)[O-])ccc1I	194 to 196
Cc1nn(-c2ccccc2)c(C)c1NC(=O)C(C)Cl (configuration not stated)	134 to 136
NCc1noc(-c2ccccc2)n1	115 to 117
CCOCc1ccc(CNC(=O)CCl)cc1	86 to 88
O=C(O)c1c[nH]c(-c2ccccc2)n1	240 to 242
O=Cc1ccc(Oc2cccc([N+](=O)[O-])c2)cc1	59 to 61
O=[N+]([O-])c1cc(F)c(F)cc1[N+](=O)[O-]	80 to 82
Clc1nc(-c2cccs2)nc2scc(-c3ccccc3)c12	143 to 145
CC(Oc1cccc(CO)c1)C(=O)O (configuration not stated)	95 to 97
COc1ccccc1NC(=O)c1c(C)n[nH]c1N	178 to 182
O=C(O)c1cccc(-c2ncon2)c1	175 to 177
Cc1cc(C)cc(-c2nnc(S)o2)c1	240 to 242
O=C(O)c1sc(C2CC2)nc1C(F)(F)F	146 to 148
NCc1nc2ccccc2s1	199 to 201
CC(=O)N(C)CC(=O)O	137 to 139
Cc1csc(NC2CC2)n1	64 to 66
CC(=O)c1cccc(NC(=O)CCl)c1	112 to 114
Cc1nn(Cc2ccc(Cl)cc2Cl)c(Cl)c1C(=O)O	227 to 229
O=C(O)c1cc(-c2ccccn2)nc2ccccc12	297 to 299
CCOc1ccc(S(=O)(=O)NC(=O)c2ccccc2)cc1	85 to 87
O=C(O)CS(=O)(=O)CCCc1ccccc1	97 to 99

Structure (SMILES)	melting point [°C]
CC(C)NC(=O)NC(C)C	191 to 193
CCc1noc(-c2ccc(N)c(Cl)c2)n1	89 to 91
COCCOc1ccc(C#N)cc1	44 to 46
CC(CC(=O)O)c1cccc(F)c1 (configuration not stated)	33 to 35
Cc1cc(C)c(C)c(OCCC(=O)O)c1	129 to 131
O=C1C=CC(=O)N1c1cccc2ccccc12	103 to 105
COc1ccc(/C=C/C(=O)O)cc1S(N)(=O)=O	257 to 259
COc1cc(C(=O)O)cc(OC)c1OCC(N)=O	249 to 253
Nc1cc(F)ccc1Sc1ncn[nH]1	180 to 182
Cc1nc2c(F)cccc2c(Cl)c1C	95 to 97
CCC(C)NS(=O)(=O)c1ccc(C(=O)O)cc1 (configuration not stated)	219 to 221
N#CCc1ccccc1C(=O)O	106 to 108
COc1ccc(C(C)=O)cc1CC(=O)O	122 to 124
O=C(O)c1ccn(-c2c(F)cccc2F)n1	179 to 181
O=C(O)c1cc2c(Cl)c(Cl)ccc2[nH]1	281 to 283
Nc1cccc(S(=O)(=O)Nc2cccc(C(F)(F)F)c2)c1	98 to 100
O=[N+]([O-])c1ccc(N2CCOCC2)nc1	143 to 145
Cc1ccc(C(=O)CC#N)s1	105 to 107
Cc1cc(N)n(-c2ncccn2)n1	203 to 205
O=C(O)Cc1ccc(NC(=O)c2cc3ccccc3o2)cc1	189 to 191
CC(C)Nc1ncccc1C(=O)O	169 to 171
O=c1[nH]c(CCl)nc2c1oc1ccccc12	98 to 100
